Measurements as given in patent publication US4853384A, “1-carbonyl derivatives of 4-aryl-4-aryloxypiperidines” (Hoechst-Roussel Pharmaceuticals Inc., priority 1988, dated 1989).

Tests used:
Assay type in all cases: in vivo, mice (male, Charles River, CD-1)
mice [1] = test: Metrazol lethality assay (MTZ), anticonvulsant activity; settings: Mus musculus, po
Experimental: (§1) The compounds of this invention are also useful as anticonvulsants due to their anticonvulsant activity in mammals. Anticonvulsant activity is measured in male mice using the supramaximal electroshock (SES) assay described in Arch. Int. Pharmacodyn. 92, pp. 97-107, (1952) and the metrazol lethality assay (MTZ) described in J. Pharmacol. Exp. Ther., 81, 402 (1944).
Groups of male mice (Charles River, CD-1), weighing 18 to 30 grams are employed in the Metrazol lethality assay. Test compounds are dissolved in distilled water or if insoluble, suspended in water, to which a surfactant, such as Tween-80 is added. The test compounds are administered orally, the administered dose being dissolved or suspended in 10 ml of solution or suspension per kg of animal body weight. Control animals (2 mice/group) receive water or water and Tween-80, i.e., the vehicle for administration of the test compound. Metrazol (pentylenetetrazol) is dissolved in water (concentration 225 mg of Metrazol/10 ml of solution), and the solution is administered subcutaneously to groups of five animals each at one or more time intervals of 15, 30, 60, 90, or 120 minutes after administration of the test compound. The number of animal alive 15 minutes after treatment with Metrazol is determined and recorded. The following formula is employed to calculate the percent protection against Metrazol lethality. [formula]
A dose range determination is performed by substantially the same procedure as the time response determination. In the dose range determination, five groups of 10 animals per group are employed. This determination is generally reserved for those compounds which protect against lethality by greater than 70% at the screening dose employed.
(§2) The anticonvulsant activity of several of the compounds of this invention as per the SES and MTZ assay procedures is provided in Table 2.

mice [2] = test: phenyl-p-quinone (phenyl-p-benzoquinone) writhing assay in mice, analgesia
Experimental: The procedure employed to determine analgetic utility is a modification of the phenyl-p-benzoquinone writhing assay in mice, a standard assay for analgesia [Proc. Soc. Exptl. Bio. […] The solution is administered to the subject mice intraperitoneally at a dose of 10 ml per kg of body weight. A characteristic "writhe" an inward rotation of one or more feet with twisting and turning of the trunk, drawing in of the abdominal wall, lordosis and arching of the back, is produced. A total of 28 male mice (Charles River, CD-1), weighing 18 to 30 grams, are employed for a time response. The subject animals receive food and water ad libitum. Test compounds are dissolved in distilled water, or suspended in distilled water containing one drop of a suitable surfactant, such as Tween-80. […] A control group (2 animals per group) receive an equal volume of the vehicle. After the administration of the phenyl-p-quinone, the mice are place separately in one liter beakers, and after five minutes, are observed for ten minutes. The number of writhes for each animal is recorded. The following formula is used to compute the percent inhibition: [formula] The time period with the greatest percent of inhibition is considered the peak time.

mice [3] = test: supramaximal electroshock (SES) assay, anticonvulsant activity; settings: Mus musculus, ip
Experimental: as §1
Groups of male mice (Charles River, CD-1) weighing 18 to 30 g are employed in the SES assay. Test compounds are dissolved in distilled water, or if insoluble, suspended in water containing one drop of a surfactant, such as Tween-80. Test compounds are generally administered intraperitoneally at a dose of 10 ml of solution, or suspension, per kg of animal body weight. The output terminals of an A.C. shocker, which delivers 206 volts rms for 300 msec, are placed across the animals' eyes, an electrode paste coating assuring contact of the terminals with the eyes. The test compound is administered and thereafter the subject animals are shocked.
Protection is expressed as normalized percent inhibition relative to vehicle control. [formula] A time response is carried out using 6 animals per group. Animals are tested at 30, 60 and 120 minutes post drug. Additional time periods are tested if indicated by previous tests. A dose range determination is generally reserved for those compounds which inhibit convulsions by greater than about 45-55% at the screening dose employed at the time the test was performed. When the peak activity time has been determined, a dose response is initiated, using 10 animals per group at that time period.
as §2

Compound	ED50 (mice [1])	Analgesic Activity: % Inhibition of writhing at a screening dose of 20 mg/kg, s.c. (mice [2])	ED50 (mice [3])
CNC(=O)N1CCC(Oc2c(F)c(F)c(F)c(F)c2F)(c2ccccc2)CC1 [1-(N-Methylamino)carbonyl-4-(2,3,4,5,6-pentafluorophenoxy)-4-phenylpiperidine]	64.3 mg/kg		
CNC(=O)N1CCC(Oc2ccc([N+](=O)[O-])cc2)(c2ccccc2)CC1 [1-(N-Methylamino)carbonyl-4-(4-nitrophenoxy)-4-phenylpiperidine]	55.2 mg/kg	34%	
CNC(=O)N1CCC(Oc2cccc(C(F)(F)F)c2)(c2ccccc2)CC1 [1-(N-Methylamino)carbonyl-4-phenyl-4-(3-trifluoromethylphenoxy)piperidine]			43.5 mg/kg
CNC(=O)N1CCC(Oc2ccc(C(F)(F)F)cc2)(c2ccccc2)CC1 [1-(N-Methylamino)carbonyl-4-phenyl-4-(4-trifluoromethylphenoxy)piperidine]	41.2 mg/kg		
CC(=O)N1CCC(Oc2c(F)c(F)c(F)c(F)c2F)(c2ccccc2)CC1 [1-Acetyl-4-(2,3,4,5,6-pentafluorophenoxy)-4-phenylpiperidine]	60.5 mg/kg	38%	
CC(=O)N1CCC(Oc2cccc(Cl)c2)(c2ccccc2)CC1 [1-Acetyl-4-(3-chlorophenoxy)-4-phenylpiperidine]		33%	55.4 mg/kg
CC(=O)N1CCC(Oc2cccc(C(F)(F)F)c2)(c2ccccc2)CC1 [1-Acetyl-4-phenyl-4-(3-trifluoromethylphenoxy)piperidine]		48%	
CC(=O)N1CCC(Oc2ccc(C(F)(F)F)cc2)(c2ccccc2)CC1 [1-Acetyl-4-phenyl-4-(4-trifluoromethylphenoxy)piperidine]	44.8 mg/kg	32%	32.1 mg/kg
NC(=O)N1CCC(Oc2ccc([N+](=O)[O-])cc2)(c2ccccc2)CC1 [1-Aminocarbonyl-4-(4-nitrophenoxy)-4-phenylpiperidine]		42%	
O=C(Cn1ccnc1)N1CCC(Oc2c(F)c(F)c(F)c(F)c2F)(c2ccccc2)CC1 [1-[2-(Imidazol-1-yl)acetyl]-4-(2,3,4,5,6-pentafluorophenoxy)-4-phenylpiperidine]	38 mg/kg		
CC(=O)Oc1ccccc1C(=O)O [asprin, reference compound]		33%	
CCC1(c2ccccc2)C(=O)NC(=O)NC1=O [phenobarbital, reference compound]			8.4 mg/kg
